US8580965B2, “Substituted sulfonamide compounds” (Gruenenthal GmbH, priority 2006, dated 2013)
Counter-ions that a name gives are not always drawn.

Tests used:
[1] = molecular target: T1, human B1R receptor (bradykinin 1 receptor) (Homo sapiens, UniProt P46663); test: FLIPR Ca2+ assay (Fluo-4) on CHO K1 cells stably transfected with the human B1R gene; % activation and % inhibition at 10 μM; format: cell-based; conditions: test substance 10 μM; CHO K1 hB1R cells; Ca2+ inflow after 0.5 nM Lys-Des-Arg9-bradykinin; hydrochloride
T1 construct: host or cells: CHO K1 cells (hB1R cells)
T1 sequence (P46663 1-353): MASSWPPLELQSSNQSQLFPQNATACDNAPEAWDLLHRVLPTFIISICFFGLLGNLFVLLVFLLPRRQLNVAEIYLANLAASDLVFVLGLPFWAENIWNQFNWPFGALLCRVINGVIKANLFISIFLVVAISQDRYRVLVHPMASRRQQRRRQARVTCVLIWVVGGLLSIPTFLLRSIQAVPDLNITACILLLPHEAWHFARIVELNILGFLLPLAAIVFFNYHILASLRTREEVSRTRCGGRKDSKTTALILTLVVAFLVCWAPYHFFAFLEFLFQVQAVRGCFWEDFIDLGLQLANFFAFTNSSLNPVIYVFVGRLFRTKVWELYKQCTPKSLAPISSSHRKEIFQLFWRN
Summary of the method: (§1)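 Fluo-4 Ca2+ flux on FLIPR in stable hB1R or rB1R CHO K1 lines, two additions. Agonism: 10 µM compound versus 0.5 nM Lys-Des-Arg9-BK (human) or 100 nM Des-Arg9-BK (rat); antagonism: same agonists applied 10 min later, suppression expressed against maximum achievable inhibition.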

[2] = molecular target: T2, B1R receptor of the rat (bradykinin 1 receptor) (Rattus norvegicus, UniProt P97583); test: FLIPR Ca2+ assay (Fluo-4) on CHO K1 cells stably transfected with the B1R gene of the rat; % activation and % inhibition at 10 μM; format: cell-based; conditions: test substance 10 μM; CHO K1 rB1R cells; Ca2+ inflow after 100 nM Des-Arg9-bradykinin; hydrochloride
T2 construct: host or cells: CHO K1 cells (rB1R cells)
T2 sequence (P97583 1-337): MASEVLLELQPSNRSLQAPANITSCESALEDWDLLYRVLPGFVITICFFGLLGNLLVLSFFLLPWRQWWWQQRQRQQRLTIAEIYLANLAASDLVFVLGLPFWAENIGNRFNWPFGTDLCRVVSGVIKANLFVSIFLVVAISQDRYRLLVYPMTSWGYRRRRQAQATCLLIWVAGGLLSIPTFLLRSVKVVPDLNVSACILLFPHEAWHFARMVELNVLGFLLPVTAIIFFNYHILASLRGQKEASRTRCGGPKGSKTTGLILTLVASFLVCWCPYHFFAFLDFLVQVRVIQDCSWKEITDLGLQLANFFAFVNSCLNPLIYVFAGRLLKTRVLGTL
Summary of the method: as §1

[3] = tested on: formalin-induced nociceptive reaction (phase 2); test: Formalin test mouse (phase 2, chronic pain component); format: in vivo; conditions: phase 2 (21 to 24 min after formalin), i.v., 10 mg/kg, 5 min before formalin, change in percent compared with vehicle control
Description: The formalin test (Dubuisson, D. and Dennis, S. G., 1977, Pain, 4, 161-174) represents a model for both acute and chronic pain. By means of a single formalin injection into the dorsal side of a rear paw, a biphasic nociceptive reaction is induced in freely mobile test animals; the reaction is detected by observing three behavior patterns which are clearly distinguishable from one another. The reaction is two-phase: phase 1=immediate reaction (duration up to 10 min., shaking of the paw, licking), phase 2=late reaction (after a rest phase; likewise shaking of the paw, licking; duration up to 60 min.). […] In the studies described here, the chronic pain component (phase 2) has been evaluated.
Formalin in a volume of 20 μl and a concentration of 1% is administered subcutaneously into the dorsal side of the right rear paw of each animal. The specific changes in behavior, such as lifting, shaking or licking of the paw (score 3, Dubuisson & Dennis, 1977), are observed and recorded in the observation period of 21 to 24 min following the formalin injection.
The behavior of the animals after administration of the substance (n=10 per dose of substance) was compared with a control group which received vehicle (n=10). Based on the quantification of the pain behavior, the activity of the test substance in the formalin test was determined as the change, in percent, compared with the control. […]

COc1cc(C)c(S(=O)(=O)N2CCCCC2COCC(=O)N2CCC(O)(c3cccnc3)CC2)c(C)c1 (stereo not drawn) [Example 87, 1-(4′-hydroxy-3′,4′,5′,6′-tetrahydro-2′H-[3,4′]bipyridinyl-1′-yl)-2-[1-(4-methoxy-2,6-dimethyl-phenylsulfonyl)-piperidin-2-ylmethoxy]-ethanone; hydrochloride]
B1R antagonism, human [10 μM] % inhibition [1]: 101.8%
B1R antagonism, rat [10 μM] % inhibition [2]: 101.93%
Substance action: antinociception [3]: 23% antinociception
